Test results as given in ChEMBL document CHEMBL1139320, “PEG-immobilization of cardol and soluble polymer-supported synthesis of some cardol-coumarin derivatives: preliminary evaluation of their inhibitory activity on mushroom tyrosinase” (Bioorg Med Chem Lett, 2009).

Molecular target: T1, Tyrosinase (Agaricus bisporus, UniProt O42713)
T1 sequence (O42713 whole entry): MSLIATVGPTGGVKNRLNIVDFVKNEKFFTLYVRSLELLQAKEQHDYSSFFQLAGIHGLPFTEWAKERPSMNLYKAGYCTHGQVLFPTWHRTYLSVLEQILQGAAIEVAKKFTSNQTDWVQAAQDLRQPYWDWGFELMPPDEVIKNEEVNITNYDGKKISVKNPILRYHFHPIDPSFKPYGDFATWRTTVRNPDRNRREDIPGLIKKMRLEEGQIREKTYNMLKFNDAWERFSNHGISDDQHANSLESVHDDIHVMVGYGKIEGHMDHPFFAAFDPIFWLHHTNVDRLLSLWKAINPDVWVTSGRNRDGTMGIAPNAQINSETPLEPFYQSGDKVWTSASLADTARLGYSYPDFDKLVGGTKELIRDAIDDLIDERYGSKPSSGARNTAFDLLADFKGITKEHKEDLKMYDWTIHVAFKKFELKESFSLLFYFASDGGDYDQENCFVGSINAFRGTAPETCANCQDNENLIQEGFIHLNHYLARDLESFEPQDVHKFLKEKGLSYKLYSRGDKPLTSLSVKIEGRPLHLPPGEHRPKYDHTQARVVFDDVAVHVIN
Description: Inhibition of mushroom tyrosine kinase assessed as oxidation of 0.25 mM L-3,4-dihydroxyphenylalanine

| IC50 [µM] | SMILES |
| --- | --- |
| 0.98 | CCCCCCc1ccc(O)cc1O [HEXYLRESORCINOL] |
| 1440 | Oc1cccc(O)c1 [RESORCINOL] |
